{
  "source": "patent US20180228145A1",
  "about": "“ABSORBENT BINDER COMPOSITION” (Kimberly-Clark Worldwide, Inc., priority 2015, published 2018)",
  "tested_on": "E. coli",
  "experiment": "Kirby-Bauer Zone of Inhibition test (AATCC 147-1998), impregnated test wafers on agar plate",
  "assay_type": "cell-based",
  "settings": "50 ml FAB, 1.1 g calcium chloride plus antimicrobial agent; impregnated wafer",
  "procedure": "A variety of absorbent binder compositions were formulated to contain the FAB superabsorbent polymer material, calcium chloride, and an antimicrobial agent. The absorbent binder composition contained 50 ml FAB and 1.1 g (10 mmole) calcium chloride, and the antimicrobial agent as noted in Table 2 below. The absorbent binder compositions were then analyzed according to the Kirby-Bauer Antibiotic test method which is a Zone of Inhibition test method (This test method is also known by the American Association of Textile Chemists and Colorists (AATCC) as test method 147-1998.). In this example, the antimicrobial agents incorporated into an absorbent binder composition were Benzalkonium chloride, hydrogen peroxide, and a combination of the Benzalkonium chloride and hydrogen peroxide. According to the test method, the absorbent binder compositions were then brought into contact with test wafers to impregnate the test wafers with the absorbent binder compositions. The absorbent binder composition-impregnated test wafers were then brought into contact with various pathogenic bacteria on an agar plate and the agar plates were then left to incubate according to the test method. Following incubation, the distance between the wafers and the growth of bacteria was measured.",
  "data": [
    {"smiles": "CN[C@H](CC(C)C)C(=O)N[C@H]1C(=O)N[C@@H](CC(N)=O)C(=O)N[C@H]2C(=O)N[C@H]3C(=O)N[C@H](C(=O)N[C@H](C(=O)O)c4cc(O)cc(O)c4-c4cc3ccc4O)[C@H](O)c3ccc(c(Cl)c3)Oc3cc2cc(c3O[C@@H]2O[C@H](CO)[C@@H](O)[C@H](O)[C@H]2O[C@H]2C[C@](C)(N)[C@H](O)[C@H](C)O2)Oc2ccc(cc2Cl)[C@H]1O", "note": "[vancomycin wafer, vancomycin]", "values": [
      {"measurement": "E. coli Zone of Inhibition", "value": 1.9, "unit": "cm"}
    ]}
  ]
}
